Patent US9832996B2, “Use of sarmentine and its analogues with an herbicide, and compositions thereof” (Marrone Bio Innovations, Inc., priority 2013, dated 2017)

How the values were obtained:
Type in all cases: in vivo
Conditions in all cases: 14 days after application
[1] = system: Agrostis stolonifera; experiment: Post-emergent spray of sarmentine and paclobutrazol on grass seedlings, fresh weight and Colby synergy
Description: (§1) Post-emergent effects of sarmentine and paclobutrazol were evaluated on annual bluegrass (Poa annua), Kentucky bluegrass (Poa pratensis), and Creeping Bentgrass (Agrostis stolonifera). For each of the three species tested, fifteen seedlings at the 1-2 leaf stage, in 2.5 cm square pots containing plant growth mix, were sprayed with two suboptimal doses of sarmentine, two suboptimal doses of paclobutrazol, or a factorial combination thereof, as shown in Tables 1-3. A volume of 40 gal/Acre was applied, using a cabinet track sprayer. Negative controls were sprayed with water. Pots were randomly placed in a growth room at 25° C. and 50% relative humidity, and watered as necessary. Treatments were arranged in a 2 k factorial design with three repeat measures and evaluated for fresh weight at 14 days after application. Potential synergy was evaluated by calculating the ratio of observed (E) to expected (Ee) percent of control weight, according to Colby's formula. Colby (1967) Weeds 15:20-22. Percent control was calculated in relation to the untreated control (0% control) with 100% control denoting no living green tissue remaining at 14 days after treatment. An E/Ee score above 1.0 indicates a synergistic interaction between two substances.

[2] = system: Poa pratensis; experiment: as above
Description: as §1

[3] = system: Poa annua; experiment: as above
Description: as §1

[4] = system: Festuca arundinacea; experiment: Post-emergent spray of sarmentine and amicarbazone on grass seedlings, fresh weight and Colby synergy
Description: as §1, with “and amicarbazone” for “and paclobutrazol”, “pratensis), Perennial ryegrass (Lolium perenne), Tall fescue (Festuca arundinacea)” for “pratensis),”, “the five” for “the three”, “of amicarbazone,” for “of paclobutrazol,”, “Tables 4-8.” for “Tables 1-3.”

[5] = system: Agrostis stolonifera; experiment: as above
Description: as §1, with “and amicarbazone” for “and paclobutrazol”, “pratensis), Perennial ryegrass (Lolium perenne), Tall fescue (Festuca arundinacea)” for “pratensis),”, “the five” for “the three”, “of amicarbazone,” for “of paclobutrazol,”, “Tables 4-8.” for “Tables 1-3.”

[6] = system: Poa pratensis; experiment: as above
Description: as §1, with “and amicarbazone” for “and paclobutrazol”, “pratensis), Perennial ryegrass (Lolium perenne), Tall fescue (Festuca arundinacea)” for “pratensis),”, “the five” for “the three”, “of amicarbazone,” for “of paclobutrazol,”, “Tables 4-8.” for “Tables 1-3.”

[7] = system: Lolium perenne; experiment: as above
Description: as §1, with “and amicarbazone” for “and paclobutrazol”, “pratensis), Perennial ryegrass (Lolium perenne), Tall fescue (Festuca arundinacea)” for “pratensis),”, “the five” for “the three”, “of amicarbazone,” for “of paclobutrazol,”, “Tables 4-8.” for “Tables 1-3.”

[8] = system: Poa annua; experiment: as above
Description: as §1, with “and amicarbazone” for “and paclobutrazol”, “pratensis), Perennial ryegrass (Lolium perenne), Tall fescue (Festuca arundinacea)” for “pratensis),”, “the five” for “the three”, “of amicarbazone,” for “of paclobutrazol,”, “Tables 4-8.” for “Tables 1-3.”

[9] = paclobutrazol 0.042 mg/ml alone
[10] = paclobutrazol 0.481 mg/ml alone
[11] = paclobutrazol 0.0467 mg/ml alone
[12] = paclobutrazol 0.293 mg/ml alone

With `CC(C)(C)[C@@H](O)[C@@H](Cc1ccc(Cl)cc1)n1cncn1` (racemic) [Paclobutrazol] the “% Control” value [1, 9] was 0.0%, the “AVG Fresh Weight” value [1, 9] was 0.76 g and the “% Control” value [1, 10] was 2.3%. For the same compound, the “AVG Fresh Weight” value [1, 10] was 0.65 g, the “% Control” value [2, 11] was 14.2% and the “AVG Fresh Weight” value [2, 11] was 0.6 g. For the same compound, the “% Control” value [2, 12] was 0.0%, the “AVG Fresh Weight” value [2, 12] was 0.7 g and the “% Control” value ([3]; paclobutrazol 0.84 mg/ml alone) was 20.8%. For the same compound, the “AVG Fresh Weight” value ([3]; paclobutrazol 0.84 mg/ml alone) was 0.48 g, the “% Control” value ([3]; paclobutrazol 1.37 mg/ml alone) was 7.9% and the “AVG Fresh Weight” value ([3]; paclobutrazol 1.37 mg/ml alone) was 0.55 g.

`CC(C)c1nn(C(=O)NC(C)(C)C)c(=O)n1N` [Amicarbazone] was tested, and the “% Control” value ([4]; amicarbazone 0.315 mg/ml alone) was 8.1%, the “AVG Fresh Weight” value ([4]; amicarbazone 0.315 mg/ml alone) was 2.3 g and the “% Control” value ([4]; amicarbazone 1.228 mg/ml alone) was 10.2%. The “AVG Fresh Weight” value ([4]; amicarbazone 1.228 mg/ml alone) was 2.2 g, the “% Control” value ([5]; amicarbazone 0.251 mg/ml alone) was 19.6% and the “AVG Fresh Weight” value ([5]; amicarbazone 0.251 mg/ml alone) was 0.56 g. The “% Control” value ([5]; amicarbazone 0.481 mg/ml alone) was 29.7%, the “AVG Fresh Weight” value ([5]; amicarbazone 0.481 mg/ml alone) was 0.49 g and the “% Control” value ([6]; amicarbazone 0.31 mg/ml alone) was 0.0%. For the same compound, the “AVG Fresh Weight” value ([6]; amicarbazone 0.31 mg/ml alone) was 0.84 g, the “% Control” value ([6]; amicarbazone 0.544 mg/ml alone) was 29.1% and the “AVG Fresh Weight” value ([6]; amicarbazone 0.544 mg/ml alone) was 0.56 g. For the same compound, the “% Control” value ([7]; amicarbazone 1.03 mg/ml alone) was 30.9%, the “AVG Fresh Weight” value ([7]; amicarbazone 1.03 mg/ml alone) was 0.96 g and the “% Control” value ([7]; amicarbazone 1.903 mg/ml alone) was 35.7%. The “AVG Fresh Weight” value ([7]; amicarbazone 1.903 mg/ml alone) was 0.89 g, the “% Control” value ([8]; amicarbazone 1.53 mg/ml alone) was 39.4% and the “Avg Fresh Weight” value ([8]; amicarbazone 1.53 mg/ml alone) was 0.57 g. For the same compound, the “% Control” value ([8]; amicarbazone 2.79 mg/ml alone) was 46.0% and the “Avg Fresh Weight” value ([8]; amicarbazone 2.79 mg/ml alone) was 0.51 g.

In the case of `CCCCC/C=C/C=C/C(=O)N1CCCC1` [Sarmentine, N-(2E,4E-Decadienoyl) pyrrolidine], the “% Control” value ([1]; sarmentine 17.43 mg/ml alone) is reported as 6.4%, the “AVG Fresh Weight” value ([1]; sarmentine 17.43 mg/ml alone) is reported as 0.63 g and the “% Control” value ([1]; sarmentine 24.72 mg/ml alone) is reported as 20.6%. For the same compound, the “AVG Fresh Weight” value ([1]; sarmentine 24.72 mg/ml alone) was 0.53 g, the “% Control” value ([2]; sarmentine 19.15 mg/ml alone) was 11.3% and the “AVG Fresh Weight” value ([2]; sarmentine 19.15 mg/ml alone) was 0.6 g. For the same compound, the “% Control” value ([2]; sarmentine 23.553 mg/ml alone) was 7.5%, the “AVG Fresh Weight” value ([2]; sarmentine 23.553 mg/ml alone) was 0.7 g and the “% Control” value ([3]; sarmentine 12.47 mg/ml alone) was 0.0%. For the same compound, the “AVG Fresh Weight” value ([3]; sarmentine 12.47 mg/ml alone) was 0.71 g, the “% Control” value ([3]; sarmentine 17.114 mg/ml alone) was 10.0% and the “AVG Fresh Weight” value ([3]; sarmentine 17.114 mg/ml alone) was 0.54 g. For the same compound, the “% Control” value ([4]; sarmentine 10.27 mg/ml alone) was 28.4%, the “AVG Fresh Weight” value ([4]; sarmentine 10.27 mg/ml alone) was 1.8 g and the “% Control” value ([4]; sarmentine 33.98 mg/ml alone) was 40.4%. The “AVG Fresh Weight” value ([4]; sarmentine 33.98 mg/ml alone) was 1.5 g, the “% Control” value ([5]; sarmentine 17.43 mg/ml alone) was 0.0% and the “AVG Fresh Weight” value ([5]; sarmentine 17.43 mg/ml alone) was 0.59 g. The “% Control” value ([5]; sarmentine 24.72 mg/ml alone) was 30.8%, the “AVG Fresh Weight” value ([5]; sarmentine 24.72 mg/ml alone) was 0.48 g and the “% Control” value ([6]; sarmentine 19.15 mg/ml alone) was 9.6%. The “AVG Fresh Weight” value ([6]; sarmentine 19.15 mg/ml alone) was 0.72 g, the “% Control” value ([6]; sarmentine 23.553 mg/ml alone) was 9.9% and the “AVG Fresh Weight” value ([6]; sarmentine 23.553 mg/ml alone) was 0.72 g. The “% Control” value ([7]; sarmentine 10 mg/ml alone) was 17.7%, the “AVG Fresh Weight” value ([7]; sarmentine 10 mg/ml alone) was 1.14 g and the “% Control” value ([7]; sarmentine 20 mg/ml alone) was 10.6%. For the same compound, the “AVG Fresh Weight” value ([7]; sarmentine 20 mg/ml alone) was 1.24 g, the “% Control” value ([8]; sarmentine 12.47 mg/ml alone) was 10.3% and the “Avg Fresh Weight” value ([8]; sarmentine 12.47 mg/ml alone) was 0.85 g. The “% Control” value ([8]; sarmentine 17.11 mg/ml alone) was 23.0% and the “Avg Fresh Weight” value ([8]; sarmentine 17.11 mg/ml alone) was 0.73 g.
